Format in all cases: functional, organism-based
Data set [1] addresses Multidrug resistance protein 1a (Rattus norvegicus) (UniProt Q6PSM0). Briefly: (§1) TP_TRANSPORTER: Western in vivo, liver of Wistar rat.
Data set [2] has as its target T1, Multidrug resistance-associated protein 1 (Rattus norvegicus, UniProt Q8CG09). The data set is described as §1.
The target in data set [3] is T2, ATP-binding cassette sub-family C member 2 (Rattus norvegicus, UniProt Q63120). The data set is described as §1.
Data set [4] addresses T3, Bile salt export pump (Rattus norvegicus, UniProt O70127).
T3 sequence (O70127 whole entry): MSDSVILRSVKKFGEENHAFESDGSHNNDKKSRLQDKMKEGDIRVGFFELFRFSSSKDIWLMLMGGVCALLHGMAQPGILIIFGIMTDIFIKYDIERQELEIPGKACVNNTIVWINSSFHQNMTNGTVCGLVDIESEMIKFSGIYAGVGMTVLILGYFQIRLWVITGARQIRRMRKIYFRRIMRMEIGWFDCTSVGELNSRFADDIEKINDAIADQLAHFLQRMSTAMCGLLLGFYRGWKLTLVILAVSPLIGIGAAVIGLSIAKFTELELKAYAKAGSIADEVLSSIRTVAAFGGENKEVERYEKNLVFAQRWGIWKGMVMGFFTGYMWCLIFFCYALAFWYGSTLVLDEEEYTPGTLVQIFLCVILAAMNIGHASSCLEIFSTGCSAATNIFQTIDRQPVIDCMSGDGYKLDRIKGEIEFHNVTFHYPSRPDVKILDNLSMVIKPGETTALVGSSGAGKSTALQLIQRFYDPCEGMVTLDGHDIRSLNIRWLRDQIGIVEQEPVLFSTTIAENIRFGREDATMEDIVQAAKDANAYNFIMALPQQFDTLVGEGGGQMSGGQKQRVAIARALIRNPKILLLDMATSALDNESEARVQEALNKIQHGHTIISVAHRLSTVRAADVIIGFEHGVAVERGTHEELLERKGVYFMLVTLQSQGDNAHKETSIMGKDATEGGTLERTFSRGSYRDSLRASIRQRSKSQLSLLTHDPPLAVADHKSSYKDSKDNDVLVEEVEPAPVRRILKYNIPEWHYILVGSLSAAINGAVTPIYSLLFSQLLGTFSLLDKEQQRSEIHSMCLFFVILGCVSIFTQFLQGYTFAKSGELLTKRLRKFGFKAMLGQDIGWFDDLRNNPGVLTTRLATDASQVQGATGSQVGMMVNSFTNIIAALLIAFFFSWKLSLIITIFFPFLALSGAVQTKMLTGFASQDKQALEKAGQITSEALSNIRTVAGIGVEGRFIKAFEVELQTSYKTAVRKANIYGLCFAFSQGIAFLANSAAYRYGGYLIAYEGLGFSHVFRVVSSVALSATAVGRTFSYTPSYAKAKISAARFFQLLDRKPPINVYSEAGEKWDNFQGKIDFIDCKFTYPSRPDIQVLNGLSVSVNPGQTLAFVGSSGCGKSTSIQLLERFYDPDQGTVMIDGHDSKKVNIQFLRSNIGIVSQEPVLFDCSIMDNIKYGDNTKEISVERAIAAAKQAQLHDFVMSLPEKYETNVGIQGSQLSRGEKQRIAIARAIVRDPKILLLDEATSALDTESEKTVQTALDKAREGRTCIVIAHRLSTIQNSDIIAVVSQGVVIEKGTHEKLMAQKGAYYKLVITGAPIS
The description is as §1.

In data set [5] the target is ATP-dependent translocase ABCB1 (Rattus norvegicus, UniProt P43245). Briefly: (§2) TP_TRANSPORTER: RT-PCR in vivo, liver of Wistar rat.
Data set [6] deals with T1, Multidrug resistance-associated protein 1. The data set is described as §2.
Data set [7] has as its target T2, ATP-binding cassette sub-family C member 2. The description is as §2.
For data set [8], the target named is T3, Bile salt export pump. The data set is described as §2.

T2 sequence (Q63120 whole entry): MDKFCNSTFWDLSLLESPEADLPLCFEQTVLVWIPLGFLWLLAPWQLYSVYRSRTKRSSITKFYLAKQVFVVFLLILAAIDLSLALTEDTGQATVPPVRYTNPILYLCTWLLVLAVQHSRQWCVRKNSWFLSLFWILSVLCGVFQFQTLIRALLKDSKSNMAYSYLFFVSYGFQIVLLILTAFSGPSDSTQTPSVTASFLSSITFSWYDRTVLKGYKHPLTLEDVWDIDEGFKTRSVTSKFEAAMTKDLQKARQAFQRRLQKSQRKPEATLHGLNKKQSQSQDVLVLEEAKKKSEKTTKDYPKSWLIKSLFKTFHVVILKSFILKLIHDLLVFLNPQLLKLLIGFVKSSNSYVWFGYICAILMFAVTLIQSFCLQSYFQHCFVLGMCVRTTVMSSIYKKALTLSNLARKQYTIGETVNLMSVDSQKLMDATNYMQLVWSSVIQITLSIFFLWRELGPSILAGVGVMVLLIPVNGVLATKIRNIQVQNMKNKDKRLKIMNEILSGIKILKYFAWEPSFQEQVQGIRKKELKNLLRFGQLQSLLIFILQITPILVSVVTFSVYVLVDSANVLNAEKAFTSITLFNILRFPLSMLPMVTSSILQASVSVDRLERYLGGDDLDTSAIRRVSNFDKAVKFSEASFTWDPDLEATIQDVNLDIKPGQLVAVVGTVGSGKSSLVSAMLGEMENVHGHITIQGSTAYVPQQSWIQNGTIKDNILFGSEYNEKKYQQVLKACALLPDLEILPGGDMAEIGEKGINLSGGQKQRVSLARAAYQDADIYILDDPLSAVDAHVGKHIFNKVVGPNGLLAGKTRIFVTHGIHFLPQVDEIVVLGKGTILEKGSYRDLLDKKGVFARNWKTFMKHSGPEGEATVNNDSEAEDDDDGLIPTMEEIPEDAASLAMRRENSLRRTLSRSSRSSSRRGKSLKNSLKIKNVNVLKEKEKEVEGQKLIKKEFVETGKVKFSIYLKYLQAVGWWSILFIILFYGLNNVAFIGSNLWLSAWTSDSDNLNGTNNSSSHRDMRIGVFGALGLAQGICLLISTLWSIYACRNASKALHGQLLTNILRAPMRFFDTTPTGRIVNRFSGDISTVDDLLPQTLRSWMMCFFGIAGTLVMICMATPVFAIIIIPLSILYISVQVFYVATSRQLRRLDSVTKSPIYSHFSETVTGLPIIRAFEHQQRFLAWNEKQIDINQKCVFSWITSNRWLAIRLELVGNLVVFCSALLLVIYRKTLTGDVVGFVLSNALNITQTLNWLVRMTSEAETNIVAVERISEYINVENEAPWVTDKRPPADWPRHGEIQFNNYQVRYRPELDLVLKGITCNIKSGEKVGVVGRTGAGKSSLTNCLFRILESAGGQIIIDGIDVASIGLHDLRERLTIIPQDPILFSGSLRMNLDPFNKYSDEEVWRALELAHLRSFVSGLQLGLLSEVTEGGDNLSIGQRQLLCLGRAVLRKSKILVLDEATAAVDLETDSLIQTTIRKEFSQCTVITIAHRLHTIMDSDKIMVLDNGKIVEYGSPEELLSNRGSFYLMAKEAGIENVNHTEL
T1 sequence (Q8CG09 whole entry): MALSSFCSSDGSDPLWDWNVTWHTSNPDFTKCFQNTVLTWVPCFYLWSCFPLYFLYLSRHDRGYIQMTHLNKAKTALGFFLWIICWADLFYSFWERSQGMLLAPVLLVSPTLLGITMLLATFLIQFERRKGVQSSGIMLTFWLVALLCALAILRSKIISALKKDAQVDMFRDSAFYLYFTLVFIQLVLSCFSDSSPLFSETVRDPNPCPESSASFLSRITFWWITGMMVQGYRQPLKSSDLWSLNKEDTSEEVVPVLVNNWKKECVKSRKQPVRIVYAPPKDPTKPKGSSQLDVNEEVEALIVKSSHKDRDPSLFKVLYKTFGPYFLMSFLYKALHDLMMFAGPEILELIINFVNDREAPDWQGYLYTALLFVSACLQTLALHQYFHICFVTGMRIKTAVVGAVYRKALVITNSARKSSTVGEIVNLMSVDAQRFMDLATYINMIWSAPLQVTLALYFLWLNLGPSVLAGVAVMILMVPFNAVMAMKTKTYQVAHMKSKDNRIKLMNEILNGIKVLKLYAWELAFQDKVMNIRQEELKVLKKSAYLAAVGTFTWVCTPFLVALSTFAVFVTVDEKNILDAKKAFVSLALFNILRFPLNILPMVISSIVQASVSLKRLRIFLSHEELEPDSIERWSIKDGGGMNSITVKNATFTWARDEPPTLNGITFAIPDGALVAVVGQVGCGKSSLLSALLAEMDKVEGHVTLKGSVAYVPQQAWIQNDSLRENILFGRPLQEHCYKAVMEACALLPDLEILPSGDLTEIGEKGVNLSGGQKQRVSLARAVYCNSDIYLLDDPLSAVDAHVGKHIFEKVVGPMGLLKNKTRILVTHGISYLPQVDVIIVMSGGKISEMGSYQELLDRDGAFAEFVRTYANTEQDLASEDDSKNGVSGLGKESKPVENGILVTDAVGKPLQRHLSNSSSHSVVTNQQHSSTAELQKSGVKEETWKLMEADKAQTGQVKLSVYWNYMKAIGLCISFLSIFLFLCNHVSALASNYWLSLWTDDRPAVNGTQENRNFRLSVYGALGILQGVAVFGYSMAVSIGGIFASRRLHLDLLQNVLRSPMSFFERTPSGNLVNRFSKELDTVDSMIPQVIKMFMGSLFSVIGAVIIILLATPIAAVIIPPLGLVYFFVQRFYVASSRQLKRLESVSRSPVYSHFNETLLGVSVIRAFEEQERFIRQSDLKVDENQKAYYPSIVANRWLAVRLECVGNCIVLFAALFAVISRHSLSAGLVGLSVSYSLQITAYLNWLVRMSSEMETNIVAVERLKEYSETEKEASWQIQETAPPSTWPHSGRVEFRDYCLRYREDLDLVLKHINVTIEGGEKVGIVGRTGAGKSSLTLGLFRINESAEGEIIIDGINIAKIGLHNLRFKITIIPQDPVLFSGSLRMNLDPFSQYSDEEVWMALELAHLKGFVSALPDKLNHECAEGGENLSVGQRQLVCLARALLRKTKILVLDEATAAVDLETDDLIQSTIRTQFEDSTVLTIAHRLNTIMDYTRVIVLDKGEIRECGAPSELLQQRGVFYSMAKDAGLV
Sequence of Multidrug resistance protein 1a (Rattus norvegicus) (Q6PSM0 as listed by the source): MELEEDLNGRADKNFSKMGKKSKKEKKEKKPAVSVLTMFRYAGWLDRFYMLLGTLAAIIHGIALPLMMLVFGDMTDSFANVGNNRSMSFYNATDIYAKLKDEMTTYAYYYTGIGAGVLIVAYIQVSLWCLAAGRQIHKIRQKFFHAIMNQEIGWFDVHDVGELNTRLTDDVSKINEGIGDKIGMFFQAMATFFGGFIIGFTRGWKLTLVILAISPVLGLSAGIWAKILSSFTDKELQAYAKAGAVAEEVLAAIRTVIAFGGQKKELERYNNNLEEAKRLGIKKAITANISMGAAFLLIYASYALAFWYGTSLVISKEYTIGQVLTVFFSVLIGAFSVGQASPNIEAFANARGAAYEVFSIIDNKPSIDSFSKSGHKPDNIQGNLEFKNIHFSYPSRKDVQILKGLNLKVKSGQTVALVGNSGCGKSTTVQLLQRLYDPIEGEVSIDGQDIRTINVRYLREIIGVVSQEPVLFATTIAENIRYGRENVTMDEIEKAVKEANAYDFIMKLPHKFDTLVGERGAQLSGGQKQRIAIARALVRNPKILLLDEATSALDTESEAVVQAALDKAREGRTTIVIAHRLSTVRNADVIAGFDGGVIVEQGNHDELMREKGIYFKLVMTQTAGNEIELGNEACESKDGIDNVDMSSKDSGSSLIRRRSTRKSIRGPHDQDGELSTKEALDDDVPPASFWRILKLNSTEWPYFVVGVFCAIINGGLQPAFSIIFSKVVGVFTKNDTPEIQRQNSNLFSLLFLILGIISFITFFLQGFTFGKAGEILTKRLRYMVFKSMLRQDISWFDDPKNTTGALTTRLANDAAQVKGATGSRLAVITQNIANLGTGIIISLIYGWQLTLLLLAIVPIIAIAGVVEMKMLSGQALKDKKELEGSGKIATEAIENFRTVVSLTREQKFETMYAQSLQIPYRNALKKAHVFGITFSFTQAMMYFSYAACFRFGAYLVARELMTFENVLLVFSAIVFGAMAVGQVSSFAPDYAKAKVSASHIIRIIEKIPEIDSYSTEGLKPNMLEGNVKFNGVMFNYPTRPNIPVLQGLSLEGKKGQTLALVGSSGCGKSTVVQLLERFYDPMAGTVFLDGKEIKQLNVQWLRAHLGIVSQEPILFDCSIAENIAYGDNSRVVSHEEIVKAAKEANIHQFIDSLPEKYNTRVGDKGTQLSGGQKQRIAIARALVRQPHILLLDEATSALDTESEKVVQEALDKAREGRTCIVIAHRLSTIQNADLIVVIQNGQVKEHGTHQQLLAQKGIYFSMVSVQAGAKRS

Regarding `CCCCCCCCCCCCCC(=O)OC(CCCCCCCCCCC)CC(=O)OC1C(NC(=O)CC(CCCCCCCCCCC)OC(=O)CCCCCCCCCCC)C(OC2CC(OC(=O)CC(O)CCCCCCCCCCC)C(NC(=O)CC(O)CCCCCCCCCCC)C(O)O2)OC(CO)C1OP(=O)(O)O` (stereo not drawn), the Activity result is “inducer [Decrease]” in data set [1]; “inducer [+]” in data set [2]; “inducer [Decrease]” in data set [3]; “inducer [Decrease]” at Bile salt export pump [4]; “inducer [+]” in data set [5]; “inducer [+]” in data set [6]. The Activity entry (in data set [7]; at Bile salt export pump [8]) was “inducer [Decrease]” each time.

These data come from ChEMBL document CHEMBL2074103, “Up-regulation of the multidrug resistance genes, Mrp1 and Mdr1b, and down-regulation of the organic anion transporter, Mrp2, and the bile salt transporter, Spgp, in endotoxemic rat liver” (Hepatology, 1998).
